Data: PubChem BioAssay (NCI)
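Five compound concentrations were applied to cells in 96-well plates for 48 hours; endpoints were derived by simple linear interpolation of the resulting dose-response curve. TGI: total growth inhibition.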

Columns and labels:
Assay in all cases: NCI tumour cell line growth inhibition, 48 h
HOP-92 NSCLC = test system: HOP-92 NSCLC
SK-MEL-5 melanoma = test system: SK-MEL-5 melanoma
M14 melanoma = test system: M14 melanoma
K-562 leukemia = test system: K-562 leukemia
SF-295 CNS = test system: SF-295 CNS
OVCAR-3 ovarian = test system: OVCAR-3 ovarian
LOX IMVI melanoma = test system: LOX IMVI melanoma
HCT-15 colon = test system: HCT-15 colon
MALME-3M melanoma = test system: MALME-3M melanoma
SN12C renal = test system: SN12C renal
MDA-MB-435 = test system: MDA-MB-435
RXF 393 renal = test system: RXF 393 renal
NCI-H460 lung = test system: NCI-H460 lung
MDA-MB-231 breast = test system: MDA-MB-231 breast
HT29 colon = test system: HT29 colon
BT-549 breast = test system: BT-549 breast
ACHN renal = test system: ACHN renal
U251 CNS = test system: U251 CNS
MOLT-4 leukemia = test system: MOLT-4 leukemia
786-0 renal = test system: 786-0 renal
A498 renal = test system: A498 renal
PC-3 prostate = test system: PC-3 prostate
MCF7 breast = test system: MCF7 breast
HCT-116 colon = test system: HCT-116 colon
HCC-2998 colon = test system: HCC-2998 colon
SNB-75 CNS = test system: SNB-75 CNS
COLO 205 colon = test system: COLO 205 colon
IGROV1 ovarian = test system: IGROV1 ovarian
NCI-H522 lung = test system: NCI-H522 lung
SW-620 colon = test system: SW-620 colon
CAKI-1 renal = test system: CAKI-1 renal
MDA-N = test system: MDA-N
DU-145 prostate = test system: DU-145 prostate
T-47D breast = test system: T-47D breast
SR leukemia = test system: SR leukemia
OVCAR-5 ovarian = test system: OVCAR-5 ovarian
HOP-62 NSCLC = test system: HOP-62 NSCLC
HL-60(TB) leukemia = test system: HL-60(TB) leukemia
SF-268 CNS = test system: SF-268 CNS
TK-10 renal = test system: TK-10 renal
NCI/ADR-RES ovarian = test system: NCI/ADR-RES ovarian
RPMI-8226 leukemia = test system: RPMI-8226 leukemia
HS 578T breast = test system: HS 578T breast
SK-MEL-28 melanoma = test system: SK-MEL-28 melanoma
CCRF-CEM leukemia = test system: CCRF-CEM leukemia
OVCAR-8 ovarian = test system: OVCAR-8 ovarian
EKVX NSCLC = test system: EKVX NSCLC
SK-OV-3 ovarian = test system: SK-OV-3 ovarian
KM12 colon = test system: KM12 colon
NCI-H23 lung = test system: NCI-H23 lung
SK-MEL-2 melanoma = test system: SK-MEL-2 melanoma
A549 NSCLC = test system: A549 NSCLC
UACC-62 melanoma = test system: UACC-62 melanoma
SF-539 CNS = test system: SF-539 CNS
UACC-257 melanoma = test system: UACC-257 melanoma
OVCAR-4 ovarian = test system: OVCAR-4 ovarian
UO-31 renal = test system: UO-31 renal
NCI-H226 lung = test system: NCI-H226 lung
SNB-19 CNS = test system: SNB-19 CNS
DMS 114 small cell lung = test system: DMS 114 small cell lung
XF 498 CNS = test system: XF 498 CNS
SNB-78 CNS = test system: SNB-78 CNS
DMS 273 small cell lung = test system: DMS 273 small cell lung
DLD-1 colon = test system: DLD-1 colon
M19-MEL melanoma = test system: M19-MEL melanoma
KM20L2 colon = test system: KM20L2 colon
LXFL 529 NSCLC = test system: LXFL 529 NSCLC

CCn1c(SCC(=O)N/N=C/c2ccccc2)nc2ccccc2c1=O was tested, and the TGI (HOP-92 NSCLC) was over 79 µM, the TGI (SK-MEL-5 melanoma) was over 100 µM and the TGI (M14 melanoma) was over 100 µM. For the same compound, the TGI (K-562 leukemia) was over 100 µM, the TGI (SF-295 CNS) was 33.1 µM and the TGI (OVCAR-3 ovarian) was over 100 µM. For the same compound, the TGI (LOX IMVI melanoma) was over 100 µM, the TGI (HCT-15 colon) was over 100 µM and the TGI (MALME-3M melanoma) was over 94.6 µM. For the same compound, the TGI (SN12C renal) was over 100 µM, the TGI (MDA-MB-435) was 17.6 µM and the TGI (RXF 393 renal) was 27.2 µM. For the same compound, the TGI (NCI-H460 lung) was 9.63 µM, the TGI (MDA-MB-231 breast) was 80.8 µM and the TGI (HT29 colon) was over 100 µM. It also gave a TGI (BT-549 breast) of over 100 µM, a TGI (ACHN renal) of over 100 µM and a TGI (U251 CNS) of over 70.9 µM. For the same compound, the TGI (MOLT-4 leukemia) was over 100 µM, the TGI (786-0 renal) was 41.7 µM and the TGI (A498 renal) was 65 µM. The TGI (PC-3 prostate) was over 46.4 µM, the TGI (MCF7 breast) was over 46.4 µM and the TGI (HCT-116 colon) was over 100 µM. The TGI (HCC-2998 colon) was over 100 µM, the TGI (SNB-75 CNS) was 54.5 µM and the TGI (COLO 205 colon) was over 100 µM. The TGI (IGROV1 ovarian) was over 93.1 µM, the TGI (NCI-H522 lung) was 27.5 µM and the TGI (SW-620 colon) was over 100 µM. It also gave a TGI (CAKI-1 renal) of 22.4 µM, a TGI (MDA-N) of over 29.3 µM and a TGI (DU-145 prostate) of over 100 µM. The TGI (T-47D breast) was over 100 µM, the TGI (SR leukemia) was 5.34 µM and the TGI (OVCAR-5 ovarian) was over 100 µM. The TGI (HOP-62 NSCLC) was over 78.3 µM, the TGI (HL-60(TB) leukemia) was over 100 µM and the TGI (SF-268 CNS) was over 70.2 µM. The TGI (TK-10 renal) was over 91 µM, the TGI (NCI/ADR-RES ovarian) was over 100 µM and the TGI (RPMI-8226 leukemia) was over 100 µM. For the same compound, the TGI (HS 578T breast) was 49.3 µM, the TGI (SK-MEL-28 melanoma) was over 100 µM and the TGI (CCRF-CEM leukemia) was over 100 µM. The TGI (OVCAR-8 ovarian) was over 82.1 µM, the TGI (EKVX NSCLC) was over 100 µM and the TGI (SK-OV-3 ovarian) was 27.1 µM. It also gave a TGI (KM12 colon) of over 68.8 µM, a TGI (NCI-H23 lung) of over 100 µM and a TGI (SK-MEL-2 melanoma) of over 46.4 µM. The TGI (A549 NSCLC) was over 46.4 µM, the TGI (UACC-62 melanoma) was 52.1 µM and the TGI (SF-539 CNS) was 38.4 µM. It also gave a TGI (UACC-257 melanoma) of over 100 µM, a TGI (OVCAR-4 ovarian) of 72.8 µM and a TGI (UO-31 renal) of over 100 µM. It also gave a TGI (NCI-H226 lung) of 67.6 µM and a TGI (SNB-19 CNS) of 71.3 µM.
Cc1ccccc1NC(=O)c1c(C)oc2c1C(=O)c1ccccc1C2=O gave a TGI (HOP-92 NSCLC) of 65.2 µM, a TGI (SK-MEL-5 melanoma) of 27.1 µM and a TGI (M14 melanoma) of over 69.9 µM. For the same compound, the TGI (K-562 leukemia) was 57.9 µM, the TGI (SF-295 CNS) was over 100 µM and the TGI (OVCAR-3 ovarian) was over 72.1 µM. The TGI (LOX IMVI melanoma) was 41.3 µM, the TGI (DMS 114 small cell lung) was 68 µM and the TGI (HCT-15 colon) was over 74.8 µM. The TGI (MALME-3M melanoma) was 27.3 µM, the TGI (SN12C renal) was over 100 µM and the TGI (RXF 393 renal) was over 100 µM. It also gave a TGI (NCI-H460 lung) of over 100 µM, a TGI (XF 498 CNS) of over 70 µM and a TGI (HT29 colon) of over 100 µM. For the same compound, the TGI (ACHN renal) was over 100 µM, the TGI (SNB-78 CNS) was 5.98 µM and the TGI (DMS 273 small cell lung) was over 100 µM. It also gave a TGI (U251 CNS) of over 20.2 µM, a TGI (MOLT-4 leukemia) of 47.4 µM and a TGI (786-0 renal) of over 100 µM. It also gave a TGI (A498 renal) of over 100 µM, a TGI (HCT-116 colon) of over 100 µM and a TGI (HCC-2998 colon) of over 100 µM. For the same compound, the TGI (SNB-75 CNS) was over 100 µM, the TGI (COLO 205 colon) was over 100 µM and the TGI (IGROV1 ovarian) was over 100 µM. It also gave a TGI (NCI-H522 lung) of 35.8 µM, a TGI (SW-620 colon) of over 57.9 µM and a TGI (CAKI-1 renal) of over 100 µM. The TGI (DLD-1 colon) was over 68.6 µM, the TGI (SR leukemia) was 75.5 µM and the TGI (OVCAR-5 ovarian) was over 100 µM. For the same compound, the TGI (HOP-62 NSCLC) was over 100 µM, the TGI (HL-60(TB) leukemia) was 56.9 µM and the TGI (SF-268 CNS) was over 100 µM. For the same compound, the TGI (TK-10 renal) was over 100 µM, the TGI (M19-MEL melanoma) was 26.6 µM and the TGI (RPMI-8226 leukemia) was 60.9 µM. It also gave a TGI (KM20L2 colon) of over 100 µM, a TGI (SK-MEL-28 melanoma) of over 100 µM and a TGI (CCRF-CEM leukemia) of 48.1 µM. It also gave a TGI (LXFL 529 NSCLC) of over 55.9 µM, a TGI (OVCAR-8 ovarian) of over 100 µM and a TGI (EKVX NSCLC) of over 100 µM. The TGI (SK-OV-3 ovarian) was over 100 µM, the TGI (KM12 colon) was over 100 µM and the TGI (NCI-H23 lung) was 93.5 µM. For the same compound, the TGI (SK-MEL-2 melanoma) was over 72.3 µM, the TGI (A549 NSCLC) was over 96.1 µM and the TGI (UACC-62 melanoma) was 49.8 µM. It also gave a TGI (SF-539 CNS) of over 68.5 µM, a TGI (UACC-257 melanoma) of 52.7 µM and a TGI (OVCAR-4 ovarian) of over 100 µM. It also gave a TGI (UO-31 renal) of over 100 µM, a TGI (NCI-H226 lung) of over 100 µM and a TGI (SNB-19 CNS) of over 100 µM.
